Assay results as given in PMC7707092, “Discovery and characterization of ORM‐11372, a novel inhibitor of the sodium‐calcium exchanger with positive inotropic activity” (British Journal of Pharmacology, 2020).

Legend:
[1] = test system: anaesthetized rats with myocardial infarctions; assay: Haemodynamics in anaesthetized MI and sham rats; assay type: in vivo; conditions: for free plasma concentration: 417 μg·kg^−1·min^−1; for maximal positive inotropic effect (LV + dP/dt max): i.v. infusion 417 μg·kg^−1·min^−1
Text: Male Sprague–Dawley rats (Harlan, Netherlands B.V.) were housed in polycarbonate cages (Makrolon IV with stainless steel wire mesh lids). A maximum of five rats were housed per cage with aspen chip bedding (Tapvei Ky, Kaavi, Finland). Rats had free access to water (twice filtered, Espoon Vesi) and a rodent diet (SDS RM1 (P) SQC pelleted diet, Special Diet Services Ltd, Witham, England). The acclimation period before experiments was at least 5 days. In the MI model, rats (7–8 weeks, 200–250 g) were randomized into either the MI or sham group. In this weight range, a rat is considered a young adult, when its evolution phase is characterized by slow growth and its surgical mortality is lower than that of older animals. Male rats were used to minimize the variability of the cardiac response to several stimuli (Zornoff, Paiva, Minicucci, & Spadaro, 2009).
Rats were anaesthetized with a combination of ketamine (Ketalar® 50 mg·kg−1, i.p.) and medetomidine (Domitor 250 μg·kg^−1, i.p.), intubated, and artificially ventilated with air (Ugo Basile 7025). An MI was induced by the occlusion of the left coronary artery under aseptic conditions (Levijoki, Pollesello, Kaheinen, & Haikala, 2001; Selye, Bajusz, Grasso, & Mendell, 1960). The left coronary artery was ligated at a distance of about 2–3 mm from the origin of the aorta with a silk suture, and the heart was repositioned into the chest. After ligation, the wound was closed carefully. The muscle layer was closed with soluble stitches and skin layers with insoluble stitches, followed by a partial reversal of anaesthesia via the […] administration of atipamezole (Antisedan® 0.3–1 mg·kg^−1, i.m.). The trachea tube was removed, and the trachea and underlying muscle and skin layers were closed immediately. To prevent dehydration, rats were subcutaneously administered with 5 ml of 0.9% NaCl. After surgery, rats were given analgesia with buprenorphine for at least 2 days (0.05 mg·kg^−1, s.c. twice a day). For sham‐operated rats, the same procedure was performed, without ligation. Rats were analysed for 7 days after the MI, for signs of severe acute heart failure such as oedema or breathing difficulties.
All animals were given multiple ascending infusion doses of ORM‐11372; blinding was not possible. Systemic BP (SP) and left ventricular pressure (LVP) values were measured with pressure transducers (SP for femoral artery: Isotec, Hugo Sachs Elektronic, Germany; a miniature pressure transducer Mikro‐Tip transducer SPR‐249, Millar Instruments was inserted into the left ventricle via the right carotid artery). The signal was amplified (DC‐bridge amplifier type 660, Hugo Sachs Elektronik, Germany), digitized (I/O connector block type SCB‐68, National Instruments, USA), recorded, and analysed (IHME 1.0.9, Fision Ltd, Finland). Left ventricular inotropic effect (LV + dP/dt max), relaxation (LV − dP/dt min), and HR values were analysed from LVP signals.
Haemodynamics were assessed 7 days after the MI (n = 6) or sham operation (n = 6) as follows. Rats were anaesthetized with isoflurane (2.25–2.5%, Baxter) in carbogen (95% O2 and 5% CO2) and nitrous oxide (1:1), using a small rodent ventilator (Ugo Basile 7025, ~10 ml·kg^−1, 60 strokes·min^−1). The rats were infused with 0.9% NaCl in the […] at the stabilization and baseline levels. ORM‐11372 was administered into MI (n = 6) and sham (n = 6) rats in ascending infusion doses of 1.7, 17, 167, and 417 μg·kg^−1·min^−1. Infusions were administered into the jugular vein of MI rats at the infusion rate of 5 ml·kg^−1·h^−1 (Terumo TE‐311, Belgium). Doses were selected based on a pilot study with healthy rats (Figure S20). The total number of animals in the study was 12 + 2, due to the replacement of two MI rats. […]

5‐HT2A receptor = 5‐HT2A receptor (Homo sapiens, UniProt P28223); assay: Radioligand binding selectivity panel (Eurofins Cerep); conditions: read-out: inhibition of specific ligand binding
Chain of 5‐HT2A receptor (P28223 whole entry): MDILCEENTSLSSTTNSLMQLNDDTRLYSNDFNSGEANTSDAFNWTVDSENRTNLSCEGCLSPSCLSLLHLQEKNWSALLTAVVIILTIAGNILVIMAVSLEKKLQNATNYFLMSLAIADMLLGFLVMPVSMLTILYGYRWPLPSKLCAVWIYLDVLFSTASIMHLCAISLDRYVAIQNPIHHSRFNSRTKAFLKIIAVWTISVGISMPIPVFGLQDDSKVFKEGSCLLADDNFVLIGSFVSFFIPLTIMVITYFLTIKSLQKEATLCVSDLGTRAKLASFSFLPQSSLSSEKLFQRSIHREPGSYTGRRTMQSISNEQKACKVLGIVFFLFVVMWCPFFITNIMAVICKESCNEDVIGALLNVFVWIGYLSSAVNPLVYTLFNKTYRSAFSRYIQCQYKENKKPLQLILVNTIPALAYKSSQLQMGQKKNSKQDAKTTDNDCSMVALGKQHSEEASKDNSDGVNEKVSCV
Protocol: (§1) Radioligand binding assays were performed at Eurofins Cerep SA (Celle L'Evescault, France), for testing the inhibition capacity of ORM‐11372 (at 10 μM with two replicates), in over 75 targets. These included receptors (e.g., human A1, A2A, and A3 adenosine receptors; α1 and α2 adrenoceptors; human β1–β3 adrenergic receptors; human D1, D2S, D3, D4.4, and D5 dopamine receptors; EGF and VEGF receptors; human M1–M5 muscarinic ACh receptors; human 5‐HT1A, 5‐HT2A, 5‐HT2B, 5‐HT2C, 5‐HT4e, 5‐HT5A, 5‐HT6, and 5‐HT7 receptors), ion channels (5‐HT3, Ca^2+, ATP‐dependent potassium channel [KATP], voltage‐dependent potassium channel [KV], small‐conductance calcium‐dependent potassium channel [SKCa], Na^+, and Cl^−), and transporters (adenosine, noradrenaline, dopamine, and 5‐HT). Follow‐up functional studies (with five concentrations and two replicates) were performed for 5‐HT2A receptors and noradrenaline transporter. Agonism and antagonism at h5‐HT2A receptors was explored in recombinant HEK 293 cells and intracellular calcium changes were detected using fluorimetry. Noradrenaline uptake was measured by carrying out scintillation counting of [^3H]noradrenaline incorporated into rat hypothalamus synaptosomes.

Na^+/K^+‐ATPase = assay: as above; conditions: 10 μM
Protocol: as §1

[2] = molecular target: noradrenaline transporter (Homo sapiens, UniProt P23975); assay: as above; conditions: read-out: inhibition of specific ligand binding
Chain of noradrenaline transporter (Homo sapiens, UniProt P23975) (P23975 whole entry): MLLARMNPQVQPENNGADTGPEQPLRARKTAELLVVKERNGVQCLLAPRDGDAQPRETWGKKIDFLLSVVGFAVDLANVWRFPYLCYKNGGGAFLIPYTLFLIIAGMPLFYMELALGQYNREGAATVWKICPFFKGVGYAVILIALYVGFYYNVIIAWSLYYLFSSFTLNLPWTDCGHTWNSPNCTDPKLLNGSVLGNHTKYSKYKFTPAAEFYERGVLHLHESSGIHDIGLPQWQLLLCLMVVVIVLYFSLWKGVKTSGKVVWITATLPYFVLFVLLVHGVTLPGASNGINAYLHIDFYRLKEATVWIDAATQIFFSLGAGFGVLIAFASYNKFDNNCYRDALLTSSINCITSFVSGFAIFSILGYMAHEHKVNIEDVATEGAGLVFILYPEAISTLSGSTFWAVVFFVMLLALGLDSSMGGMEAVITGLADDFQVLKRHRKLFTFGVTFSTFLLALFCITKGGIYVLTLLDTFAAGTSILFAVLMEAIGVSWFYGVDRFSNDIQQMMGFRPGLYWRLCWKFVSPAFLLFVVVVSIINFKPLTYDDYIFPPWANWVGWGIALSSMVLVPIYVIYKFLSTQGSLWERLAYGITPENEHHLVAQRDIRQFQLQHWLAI
Protocol: as §1

5‐HT2B receptor = 5‐HT2B receptor (Homo sapiens, UniProt P41595); assay: as above; conditions: read-out: inhibition of specific ligand binding
Chain of 5‐HT2B receptor (P41595 whole entry): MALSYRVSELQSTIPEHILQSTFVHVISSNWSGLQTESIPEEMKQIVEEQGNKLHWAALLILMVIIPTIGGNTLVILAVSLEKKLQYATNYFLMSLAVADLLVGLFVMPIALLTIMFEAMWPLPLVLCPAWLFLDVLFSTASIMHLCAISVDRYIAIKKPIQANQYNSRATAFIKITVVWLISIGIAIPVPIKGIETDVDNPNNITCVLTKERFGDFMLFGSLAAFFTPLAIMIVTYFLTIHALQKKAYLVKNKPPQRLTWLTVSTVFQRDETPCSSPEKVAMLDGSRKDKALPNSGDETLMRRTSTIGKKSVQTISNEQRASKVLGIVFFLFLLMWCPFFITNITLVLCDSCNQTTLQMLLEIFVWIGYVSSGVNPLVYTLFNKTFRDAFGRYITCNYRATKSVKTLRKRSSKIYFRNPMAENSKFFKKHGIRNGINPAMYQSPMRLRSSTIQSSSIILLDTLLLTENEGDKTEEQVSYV
Protocol: as §1

ryanodine receptor = assay: as above; conditions: 10 μM
Protocol: as §1

[3] = molecular target: peripheral benzodiazepine receptor (Rattus norvegicus, UniProt P16257); assay: as above; conditions: read-out: inhibition of specific ligand binding
Protocol: as §1

[4] = molecular target: T1, noradrenaline transporter (Rattus norvegicus, UniProt Q9WTR4); assay: [^3H]noradrenaline uptake into rat hypothalamus synaptosomes; assay type: biochemical
T1 construct: [^3H]noradrenaline incorporated into rat hypothalamus synaptosomes; from tissue; host or cells: rat hypothalamus synaptosomes
T1 sequence (Q9WTR4 1-597): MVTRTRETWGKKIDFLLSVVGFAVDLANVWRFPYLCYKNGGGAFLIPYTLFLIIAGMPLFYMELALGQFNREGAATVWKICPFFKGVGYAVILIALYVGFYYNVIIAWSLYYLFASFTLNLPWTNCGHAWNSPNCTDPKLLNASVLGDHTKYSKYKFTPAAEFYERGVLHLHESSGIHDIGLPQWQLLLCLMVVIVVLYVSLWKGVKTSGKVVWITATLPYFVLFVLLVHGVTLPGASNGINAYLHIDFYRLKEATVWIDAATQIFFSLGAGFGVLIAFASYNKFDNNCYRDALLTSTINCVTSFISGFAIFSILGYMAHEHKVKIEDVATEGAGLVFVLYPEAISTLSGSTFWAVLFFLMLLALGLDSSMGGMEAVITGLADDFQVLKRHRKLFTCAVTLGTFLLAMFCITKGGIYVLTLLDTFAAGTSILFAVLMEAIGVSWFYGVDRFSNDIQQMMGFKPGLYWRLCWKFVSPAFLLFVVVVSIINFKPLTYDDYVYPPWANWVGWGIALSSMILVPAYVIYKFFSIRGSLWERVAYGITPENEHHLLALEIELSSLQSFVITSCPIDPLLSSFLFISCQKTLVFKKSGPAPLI
Protocol: as §1

Nc1cccc(-c2ccc(CNc3ccc(F)cc3)o2)c1 [ORM‐11372]
improvement of relaxation ([1]; MI group, lowest infusion dose 1.7 μg·kg^−1·min^−1): 24 ± 2% | systemic arterial BP ([1]; MI or sham groups): no effect | free plasma concentration ([1]; MI rats): 6.7 ± 2.5 nM | maximal positive inotropic effect (LV + dP/dt max) ([1]; MI rats): 18 ± 6% | free plasma concentration ([1]; sham rats): 4.9 ± 0.4 nM | maximal positive inotropic effect (LV + dP/dt max) ([1]; sham rats): 31 ± 6% | inhibition at 10 µM (5‐HT2A receptor): > 50% | inhibition of specific ligand binding (Na^+/K^+‐ATPase): 11% | inhibition at 10 µM [2]: > 50% | inhibition at 10 µM (5‐HT2B receptor): > 50% | inhibition of specific ligand binding (ryanodine receptor): 15% | inhibition at 10 µM [3]: > 50% | IC50 [4]: 1700 nM
